# Patent US20260285846A1, “REV-ERB AGONISTS FOR TH17-MEDIATED INFLAMMATORY DISORDERS” (UNIVERSITY OF FLORID RESEARCH FOUNDATION, iNCORPORATED, priority 2021, published 2026)
# pEC50: −log10 of the molar value.
# Biological target: REV-ERBα LBD (Homo sapiens, UniProt P20393, DEL324-422)
# Assay: biochemical
# Conditions: FRET assay; 6xHistag-REV-ERBα LBD with FITC-labeled SMRT corepressor peptide; read-out: REVERBα (Agonism of REV-ERBα, EC50)
# Procedure, shortened: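 TR-FRET corepressor recruitment: 4 nM His-tagged human REV-ERBα LBD (residues 281-614 Δ324-422, or 381-579), 1 nM Tb-anti-His antibody and 400 nM FITC-SMRT peptide in pH 7.4 phosphate buffer with DTT; ligands in triplicate, 2 h at 4° C. 520/495 nm ratio fitted to sigmoidal dose-response for EC50.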
# REV-ERBα LBD, sequence (P20393 with tags, fused parts or gaps DEL324-422): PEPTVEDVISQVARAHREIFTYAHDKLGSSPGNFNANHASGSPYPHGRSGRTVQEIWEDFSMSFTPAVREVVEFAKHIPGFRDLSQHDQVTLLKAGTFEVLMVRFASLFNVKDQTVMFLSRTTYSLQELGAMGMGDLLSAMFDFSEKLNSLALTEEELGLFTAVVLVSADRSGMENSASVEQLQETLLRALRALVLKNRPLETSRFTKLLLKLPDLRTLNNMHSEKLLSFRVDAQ
# REV-ERBα LBD, sequence (Q9Y618 2335-2356 partner limits assumed): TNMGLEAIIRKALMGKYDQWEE
row,SMILES,pEC50
1,"CC(C)S(=O)(=O)N[C@@H](c1cn(CC(C)(C)C)c2cc(-c3cccnc3C(F)(F)F)c(F)cc12)C(F)F [Compound 42, (S)—N-(2,2-difluoro-1-(5-fluoro-1-neopentyl-6-(2-(trifluoromethyl)pyridin-3-yl)-1H-indol-3-yl)ethyl)propane-2-sulfonamide]",> 7.00
2,"CC(NS(=O)(=O)C1CC1)c1cn(CC(C)(C)C)c2cc(-c3cccnc3C(F)(F)F)c(F)cc12 (single isomer, unassigned) [Compound 29, (S or R) N-[1-[1-(2,2-dimethylpropyl)-5-fluoro-6-[2-(trifluoromethyl)-3-pyridyl]indol-3-yl]ethyl]cyclopropanesulfonamide]",6.00 to 7.00
3,"CC(NS(=O)(=O)C1CC1)c1cn(CC(C)(C)C)c2cc(-c3cccnc3C(F)F)c(F)cc12 (stereo not drawn) [Compound 65, N-(1-(6-(2-(difluoromethyl)pyridin-3-yl)-5-fluoro-1-neopentyl-1H-indol-3-yl)ethyl)cyclopropanesulfonamide]",> 7.00
4,"Cc1ncc(F)cc1-c1cc2c(cc1F)c(C(C)NS(=O)(=O)C1CC1)cn2CC(C)(C)C (stereo not drawn) [Compound 66, N-(1-(5-fluoro-6-(5-fluoro-2-methylpyridin-3-yl)-1-neopentyl-1H-indol-3-yl)ethyl)cyclopropanesulfonamide]",> 7.00
5,"CC(C)(C)Cn1cc([C@H](NS(=O)(=O)C2CC2)C(F)F)c2cc(F)c(-c3ncc(F)cc3C(F)(F)F)cc21 [Compound 56, (S)—N-(2,2-difluoro-1-(5-fluoro-6-(5-fluoro-3-(trifluoromethyl)pyridin-2-yl)-1-neopentyl-1H-indol-3-yl)ethyl)cyclopropanesulfonamide]",> 7.00
6,"CC(C)(C)Cn1cc([C@H](NS(=O)(=O)C2CC2)C(F)F)c2cc(F)c(-c3ncc(C#N)cc3C(F)(F)F)cc21 [Compound 138, (S)—N-(1-(6-(5-cyano-3-(trifluoromethyl)pyridin-2-yl)-5-fluoro-1-neopentyl-1H-indol-3-yl)-2,2-difluoroethyl)cyclopropanesulfonamide]",> 7.00
7,"CC(C)(C)Cn1cc(C(NS(=O)(=O)C23CC(C2)C3)C(F)F)c2cc(F)c(-c3ccccc3C(F)(F)F)cc21 (stereo not drawn) [Compound 41, N-(2,2-difluoro-1-(5-fluoro-1-neopentyl-6-(2-(trifluoromethyl)phenyl)-1H-indol-3-yl)ethyl)bicyclo[1.1.1]pentane-1-sulfonamide]",> 7.00
8,"CC(C)(C)Cn1cc([C@H](NS(=O)(=O)C2CC2)C(F)F)c2cc(F)c(-c3cc(F)cnc3C(F)(F)F)cc21 [Compound 132, (S)—N-(2,2-difluoro-1-(5-fluoro-6-(5-fluoro-2-(trifluoromethyl)pyridin-3-yl)-1-neopentyl-1H-indol-3-yl)ethyl)cyclopropanesulfonamide]",> 7.00
9,"CC(C)(C)Cn1cc([C@H](NS(=O)(=O)C2CC2)C(F)F)c2ccc(-c3ccc(F)cc3C(F)F)cc21 [Compound 105, (S)—N-(1-(6-(2-(difluoromethyl)-4-fluorophenyl)-1-neopentyl-1H-indol-3-yl)-2,2-difluoroethyl)cyclopropanesulfonamide]",> 7.00
10,"N#CC1CC(n2cc([C@H](NS(=O)(=O)C3CC3)C(F)F)c3cc(F)c(-c4ccc(F)cc4C(F)(F)F)cc32)C1 (stereo partly drawn) [Compound 179, (S)—N-(1-(1-(3-cyanocyclobutyl)-5-fluoro-6-(4-fluoro-2-(trifluoromethyl)phenyl)-1H-indol-3-yl)-2,2-difluoroethyl)cyclopropanesulfonamide]",> 7.00
11,"Cc1ccccc1-c1cc2c(cc1F)c([C@H](NS(=O)(=O)C1CC1)C(F)F)cn2CC(C)(C)C [Compound 12, (S)—N-(2,2-difluoro-1-(5-fluoro-1-neopentyl-6-(o-tolyl)-1H-indol-3yl)ethyl)cyclopropanesulfonamide]",> 7.00
12,"O=S(=O)(N[C@@H](c1cn(C2CCC2)c2cc(-c3cccnc3C(F)(F)F)c(F)cc12)C(F)F)C1CC1 [Compound 146, (S)—N-(1-(1-cyclobutyl-5-fluoro-6-(2-(trifluoromethyl)pyridin-3-yl)-1H-indol-3-yl)-2,2-difluoroethyl)cyclopropanesulfonamide]",> 7.00
13,"COc1cccc(C#N)c1-c1ccc2c([C@H](NS(=O)(=O)C3CC3)C(F)(F)F)cn(CC(C)(C)C)c2c1 [Compound 7, (S)—N-(1-(6-(2-cyano-6-methoxyphenyl)-1-neopentyl-1H-indol-3-yl)-2,2,2-trifluoroethyl)cyclopropanesulfonamide]",6.00 to 7.00
14,"N#Cc1nccc(C(F)F)c1-c1nc2c(cc1F)c([C@H](NS(=O)(=O)C1CC1)C(F)F)cn2C1CCC1 [Compound 162, N-((1S)-1-(6-(2-cyano-4-(difluoromethyl)pyridin-3-yl)-1-cyclobutyl-5-fluoro-1H-pyrrolo[2,3-b]pyridin-3-yl)-2,2-difluoroethyl)cyclopropanesulfonamide]",> 7.00
15,"CC(NS(=O)(=O)C1CC1)c1cn(CC(C)(C)C)c2cc(-c3cccnc3C(F)(F)F)c(F)cc12 (single isomer, unassigned) [Compound 28, N-[1-[1-(2,2-dimethylpropyl)-5-fluoro-6-[2-(trifluoromethyl)-3-pyridyl]indol-3-yl]ethyl]cyclopropanesulfonamide]",> 7.00
16,"Cc1ccccc1-c1ccc2c([C@H](NS(=O)(=O)C3CC(F)(F)C3)C(F)F)cn(CC(C)(C)C)c2c1 [Compound 30, (S)—N-(2,2-difluoro-1-(1-neopentyl-6-(o-tolyl)-1H-indol-3-yl)ethyl)-3,3-difluorocyclobutane-1-sulfonamide]",6.00 to 7.00

# Further lines, results first:
row,pEC50,SMILES
1,> 7.00,CN(C)S(=O)(=O)N[C@@H](c1cn(CC(C)(C)C)c2cc(-c3cccnc3C(F)(F)F)c(F)cc12)C(F)F [Compound 43]
2,> 7.00,"[2H]C1([2H])CC(S(=O)(=O)N[C@@H](c2cn(CC(C)(C)C)c3cc(-c4cccnc4C(F)(F)F)c(F)cc23)C(F)F)C1 [Compound 45, (S)—N-(2,2-difluoro-1-(5-fluoro-1-neopentyl-6-(2-(trifluoromethyl)pyridin-3-yl)-1H-indol-3-yl)ethyl)cyclobutane-1-sulfonamide-3,3-d2]"
3,> 7.00,CN(C)S(=O)(=O)N[C@@H](c1cn(CC(C)(C)C)c2cc(-c3c(C#N)cccc3C(F)(F)F)ccc12)C(F)F [Compound 75]
4,> 7.00,"CC(C)(C)Cn1cc([C@H](NS(=O)(=O)C2CC2)C(F)F)c2cc(F)c(-c3cnc(C#N)cc3C(F)(F)F)cc21 [Compound 133, (S)—N-(1-(6-(6-cyano-4-(trifluoromethyl)pyridin-3-yl)-5-fluoro-1-neopentyl-1H-indol-3-yl)-2,2-difluoroethyl)cyclopropanesulfonamide]"
5,> 7.00,"CC(NS(=O)(=O)C1CC1)c1cn(CC(C)(C)C)c2cc(-c3ncccc3C#N)c(F)cc12 (single isomer, unassigned) [Compound 19, (R or S)—N-(1-(6-(3-cyanopyridin-2-yl)-5-fluoro-1-neopentyl-1H-indol-3-yl)ethyl)cyclopropanesulfonamide]"
6,> 7.00,"CC(C)(C)Cn1cc([C@H](NS(=O)(=O)C2CC2)C(F)F)c2ccc(-c3ncccc3Cl)cc21 [Compound 85, (S)—N-(1-(6-(3-chloropyridin-2-yl)-1-neopentyl-1H-indol-3-yl)-2,2-difluoroethyl)cyclopropanesulfonamide]"
7,6.00 to 7.00,"CC(NS(=O)(=O)C1CC1)c1cn(CC(C)(C)C)c2cc(-c3cncc(C#N)c3)c(F)cc12 (stereo not drawn) [Compound 37, N-[1-[6-(5-cyano-3-pyridyl)-1-(2,2-dimethylpropyl)-5-fluoro-indol-3-yl]ethyl]cyclopropanesulfonamide]"
8,6.00 to 7.00,"CC(NS(=O)(=O)C1CC1)c1cn(CC(C)(C)C)c2cc(-c3cnccc3F)c(F)cc12 (stereo not drawn) [Compound 72, N-(1-(5-fluoro-6-(4-fluoropyridin-3-yl)-1-neopentyl-1H-indol-3-yl)ethyl)cyclopropanesulfonamide]"
9,6.00 to 7.00,"O=S(=O)(N[C@@H](c1cn(C2COC2)c2nc(-c3ccc(F)cc3C(F)(F)F)c(F)cc12)C(F)F)C1CC1 [Compound 177, (S)—N-(2,2-difluoro-1-(5-fluoro-6-(4-fluoro-2-(trifluoromethyl)phenyl)-1-(oxetan-3-yl)-1H-pyrrolo[2,3-b]pyridin-3-yl)ethyl)cyclopropanesulfonamide]"
10,> 7.00,"Cc1cnc(C(F)(F)F)c(-c2nc3c(cc2F)c([C@H](NS(=O)(=O)C2CC2)C(F)F)cn3CC(C)(C)C)c1 [Compound 142, (S)—N-(2,2-difluoro-1-(5-fluoro-6-(5-methyl-2-(trifluoromethyl)pyridin-3-yl)-1-neopentyl-1H-pyrrolo[2,3-b]pyridin-3-yl)ethyl)cyclopropanesulfonamide]"
11,< 6.00,"O=S(=O)(N[C@@H](c1cn(C2CNC2)c2cc(-c3ccc(F)cc3C(F)(F)F)c(F)cc12)C(F)F)C1CC1 [Compound 152, (S)—N-(1-(1-(azetidin-3-yl)-5-fluoro-6-(4-fluoro-2-(trifluoromethyl)phenyl)-1H-indol-3-yl)-2,2-difluoroethyl)cyclopropanesulfonamide]"
12,> 7.00,"CC(NS(=O)(=O)C1CC1)c1cn(CC(C)(C)C)c2cc(-c3ncccc3C3CC3)c(F)cc12 (stereo not drawn) [Compound 60, N-(1-(6-(3-cyclopropylpyridin-2-yl)-5-fluoro-1-neopentyl-1H-indol-3-yl)ethyl)cyclopropanesulfonamide]"
13,> 7.00,"Cc1ccnc(C(F)F)c1-c1ccc2c([C@H](NS(=O)(=O)C3CC3)C(F)F)cn(CC(C)(C)C)c2c1 [Compound 128, (S)—N-(1-(6-(2-(difluoromethyl)-4-methylpyridin-3-yl)-1-neopentyl-1H-indol-3-yl)-2,2-difluoroethyl)cyclopropanesulfonamide]"
14,> 7.00,"CC(C)(C)Cn1cc([C@H](NS(=O)(=O)N2CC(F)C2)C(F)F)c2cc(F)c(-c3ccccc3C(F)(F)F)cc21 [Compound 76, (S)—N-(2,2-difluoro-1-(5-fluoro-1-neopentyl-6-(2-(trifluoromethyl)phenyl)-1H-indol-3-yl)ethyl)-3-fluoroazetidine-1-sulfonamide]"
